Data: PubChem BioAssay (NCI)
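Here, GI50 denotes the concentration required for 50% inhibition of growth. TGI: concentration producing complete growth inhibition.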

Legend:
Test in all cases: NCI tumour cell line growth inhibition, 384-well format
HCC-2998 colon = test system: HCC-2998 colon
NCI-H460 NSCLC = test system: NCI-H460 NSCLC
OVCAR-3 ovarian = test system: OVCAR-3 ovarian
OVCAR-8 ovarian = test system: OVCAR-8 ovarian
NCI-H322M lung = test system: NCI-H322M lung
MDA-MB-231 breast = test system: MDA-MB-231 breast
UACC-62 melanoma = test system: UACC-62 melanoma
SK-MEL-5 melanoma = test system: SK-MEL-5 melanoma
A498 renal = test system: A498 renal
DU-145 prostate = test system: DU-145 prostate
OVCAR-5 ovarian = test system: OVCAR-5 ovarian
KM12 colon = test system: KM12 colon
HCT-116 colon = test system: HCT-116 colon
CAKI-1 renal = test system: CAKI-1 renal
SF-268 CNS = test system: SF-268 CNS
HL-60(TB) leukemia = test system: HL-60(TB) leukemia
NCI-H23 lung = test system: NCI-H23 lung
SNB-19 CNS = test system: SNB-19 CNS
SF-295 CNS = test system: SF-295 CNS
A549 NSCLC = test system: A549 NSCLC
NCI-H522 lung = test system: NCI-H522 lung
HOP-92 NSCLC = test system: HOP-92 NSCLC
K-562 leukemia = test system: K-562 leukemia
HS 578T breast = test system: HS 578T breast
MALME-3M melanoma = test system: MALME-3M melanoma
SNB-75 CNS = test system: SNB-75 CNS
T-47D breast = test system: T-47D breast
SF-539 CNS = test system: SF-539 CNS
SK-MEL-28 melanoma = test system: SK-MEL-28 melanoma
EKVX NSCLC = test system: EKVX NSCLC
RPMI-8226 leukemia = test system: RPMI-8226 leukemia
IGROV1 ovarian = test system: IGROV1 ovarian
MDA-MB-435 melanoma = test system: MDA-MB-435 melanoma
OVCAR-4 ovarian = test system: OVCAR-4 ovarian
U251 glioblastoma = test system: U251 glioblastoma
MCF7 breast = test system: MCF7 breast
SW-620 colon = test system: SW-620 colon
SK-OV-3 ovarian = test system: SK-OV-3 ovarian
LOX IMVI melanoma = test system: LOX IMVI melanoma
TK-10 renal = test system: TK-10 renal
786-0 renal = test system: 786-0 renal
COLO 205 colon = test system: COLO 205 colon
MOLT-4 leukemia = test system: MOLT-4 leukemia
MDA-MB-468 breast = test system: MDA-MB-468 breast
SN12C renal = test system: SN12C renal
UACC-257 melanoma = test system: UACC-257 melanoma
RXF 393 renal = test system: RXF 393 renal
NCI/ADR-RES ovarian = test system: NCI/ADR-RES ovarian
HCT-15 colon = test system: HCT-15 colon
M14 melanoma = test system: M14 melanoma
BT-549 breast = test system: BT-549 breast
UO-31 renal = test system: UO-31 renal
NCI-H226 lung = test system: NCI-H226 lung
SK-MEL-2 melanoma = test system: SK-MEL-2 melanoma
SR leukemia = test system: SR leukemia
HOP-62 NSCLC = test system: HOP-62 NSCLC
CCRF-CEM leukemia = test system: CCRF-CEM leukemia
ACHN renal = test system: ACHN renal
PC-3 prostate = test system: PC-3 prostate

CCN1CCN(Cc2ccc(Nc3ncc(F)c(-c4cc(F)c5nc(C)n(C(C)C)c5c4)n3)nc2)CC1
GI50 (HCC-2998 colon): 4.45 µM
GI50 (NCI-H460 NSCLC): 0.387 µM
TGI (NCI-H460 NSCLC): 1.82 µM
GI50 (OVCAR-3 ovarian): 4.21 µM
TGI (OVCAR-3 ovarian): > 29.3 µM
GI50 (OVCAR-8 ovarian): 24.3 µM
TGI (OVCAR-8 ovarian): > 32.4 µM
GI50 (NCI-H322M lung): 1.16 µM
TGI (NCI-H322M lung): 15.2 µM
GI50 (MDA-MB-231 breast): 0.749 µM
GI50 (UACC-62 melanoma): 2.4 µM
TGI (UACC-62 melanoma): > 26.9 µM
GI50 (SK-MEL-5 melanoma): 0.26 µM
TGI (SK-MEL-5 melanoma): > 23.3 µM
GI50 (A498 renal): 0.312 µM
TGI (A498 renal): 1.47 µM
GI50 (DU-145 prostate): 1.84 µM
TGI (DU-145 prostate): 9.15 µM
GI50 (OVCAR-5 ovarian): 0.944 µM
TGI (OVCAR-5 ovarian): > 68.3 µM
GI50 (KM12 colon): 0.485 µM
TGI (KM12 colon): 6.5 µM
GI50 (HCT-116 colon): 0.392 µM
TGI (HCT-116 colon): 1.87 µM
GI50 (CAKI-1 renal): 0.285 µM
TGI (CAKI-1 renal): 14 µM
GI50 (SF-268 CNS): 2 µM
TGI (SF-268 CNS): 19 µM
GI50 (HL-60(TB) leukemia): 0.386 µM
TGI (HL-60(TB) leukemia): 6.82 µM
GI50 (NCI-H23 lung): 1.74 µM
TGI (NCI-H23 lung): 7.68 µM
GI50 (SNB-19 CNS): 16 µM
TGI (SNB-19 CNS): > 33.6 µM
GI50 (SF-295 CNS): 6.95 µM
TGI (SF-295 CNS): > 34.2 µM
GI50 (A549 NSCLC): 2.12 µM
TGI (A549 NSCLC): 7.52 µM
GI50 (NCI-H522 lung): 9.54 µM
TGI (NCI-H522 lung): > 33.1 µM
GI50 (HOP-92 NSCLC): > 81.8 µM
TGI (HOP-92 NSCLC): > 100 µM
GI50 (K-562 leukemia): 1.11 µM
TGI (K-562 leukemia): 2.32 µM
GI50 (HS 578T breast): 2.43 µM
TGI (HS 578T breast): 19.4 µM
GI50 (MALME-3M melanoma): 3.43 µM
TGI (MALME-3M melanoma): 13.6 µM
GI50 (SNB-75 CNS): 0.708 µM
TGI (SNB-75 CNS): 10.6 µM
GI50 (T-47D breast): 23.7 µM
TGI (T-47D breast): > 68.5 µM
GI50 (SF-539 CNS): 1.26 µM
TGI (SF-539 CNS): 2.53 µM
GI50 (SK-MEL-28 melanoma): 1.85 µM
TGI (SK-MEL-28 melanoma): > 33.3 µM
GI50 (EKVX NSCLC): 18 µM
TGI (EKVX NSCLC): > 62 µM
GI50 (RPMI-8226 leukemia): 1.42 µM
TGI (RPMI-8226 leukemia): 8.38 µM
GI50 (IGROV1 ovarian): 4.43 µM
TGI (IGROV1 ovarian): > 28.1 µM
GI50 (MDA-MB-435 melanoma): > 15.5 µM
TGI (MDA-MB-435 melanoma): > 52.4 µM
TGI (OVCAR-4 ovarian): > 19.6 µM
GI50 (U251 glioblastoma): 2.87 µM
TGI (U251 glioblastoma): > 29.6 µM
GI50 (MCF7 breast): 0.395 µM
TGI (MCF7 breast): 6.59 µM
GI50 (SW-620 colon): 0.366 µM
TGI (SW-620 colon): 1.81 µM
GI50 (SK-OV-3 ovarian): 3.31 µM
TGI (SK-OV-3 ovarian): > 32 µM
GI50 (LOX IMVI melanoma): 0.372 µM
TGI (LOX IMVI melanoma): 7.23 µM
GI50 (TK-10 renal): 0.803 µM
TGI (TK-10 renal): > 27.6 µM
GI50 ([…]-0 renal): 1.27 µM
TGI (786-0 renal): 7.97 µM
GI50 (COLO 205 colon): 0.447 µM
TGI (COLO 205 colon): > 55.9 µM
GI50 (MOLT-4 leukemia): 0.127 µM
TGI (MOLT-4 leukemia): 0.981 µM
GI50 (MDA-MB-468 breast): 1.18 µM
TGI (MDA-MB-468 breast): > 25.7 µM
GI50 (SN12C renal): 6.7 µM
TGI (SN12C renal): > 32.9 µM
GI50 (UACC-257 melanoma): 4.74 µM
TGI (UACC-257 melanoma): > 32.1 µM
GI50 (RXF 393 renal): 5.84 µM
TGI (RXF 393 renal): 11.6 µM
GI50 (NCI/ADR-RES ovarian): > 60.9 µM
TGI (NCI/ADR-RES ovarian): > 100 µM
GI50 (HCT-15 colon): 0.531 µM
TGI (HCT-15 colon): 7.24 µM
GI50 (M14 melanoma): 0.684 µM
TGI (M14 melanoma): > 28 µM
GI50 (BT-549 breast): 0.917 µM
TGI (BT-549 breast): 16.5 µM
GI50 (UO-31 renal): 0.362 µM
TGI (UO-31 renal): > 19.1 µM
GI50 (NCI-H226 lung): 0.56 µM
TGI (NCI-H226 lung): 23 µM
GI50 (SK-MEL-2 melanoma): 16.8 µM
TGI (SK-MEL-2 melanoma): 30.5 µM
GI50 (SR leukemia): 0.0577 µM
TGI (SR leukemia): 0.267 µM
GI50 (HOP-62 NSCLC): 8.44 µM
TGI (HOP-62 NSCLC): > 56.8 µM
GI50 (CCRF-CEM leukemia): 0.33 µM
TGI (CCRF-CEM leukemia): 4.39 µM
GI50 (ACHN renal): 0.39 µM
TGI (ACHN renal): 10.6 µM
GI50 (PC-3 prostate): 1.49 µM
TGI (PC-3 prostate): > 31.9 µM
